Data reported in ChEMBL document CHEMBL1201862, “PubChem BioAssay data set” (2004).
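In this assay, cells in 96-well plates receive the compound at five concentrations for 48 hours. Endpoints are linearly interpolated between the surrounding concentrations. At the GI50, growth is halved.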 Activity calls are given as the source filed them. No stated cut-off is given here; in the data, active = GI50 up to about 1.1 µM and inactive = higher.

Experiments:
Assay in all cases: NCI tumour cell line growth inhibition, 48 h
LOX IMVI = tested on: LOX IMVI
SK-MEL-28 = tested on: SK-MEL-28
SK-OV-3 = tested on: SK-OV-3
MOLT-4 = tested on: MOLT-4
NCI-H23 = tested on: NCI-H23
COLO 205 = tested on: COLO 205
HCT-116 = tested on: HCT-116
DMS-273 = tested on: DMS-273
UACC-257 = tested on: UACC-257
M19-MEL = tested on: M19-MEL
UO-31 = tested on: UO-31
OVCAR-4 = tested on: OVCAR-4
RPMI-8226 = tested on: RPMI-8226
NCI/ADR-RES = tested on: NCI/ADR-RES
HOP-62 = tested on: HOP-62
HT-29 = tested on: HT-29
SN12C = tested on: SN12C
KM12 = tested on: KM12
NCI-H522 = tested on: NCI-H522
SF-268 = tested on: SF-268
SNB-78 = tested on: SNB-78
RXF 393 = tested on: RXF 393
NCI-H460 = tested on: NCI-H460
SK-MEL-5 = tested on: SK-MEL-5
XF498 = tested on: XF498
DMS-114 = tested on: DMS-114
UACC-62 = tested on: UACC-62
SF-295 = tested on: SF-295
CCRF-CEM = tested on: CCRF-CEM
SF-539 = tested on: SF-539
HCC 2998 = tested on: HCC 2998
KM-20L2 = tested on: KM-20L2
HCT-15 = tested on: HCT-15
Malme-3M = tested on: Malme-3M
SW-620 = tested on: SW-620
DLD-1 = tested on: DLD-1
HOP-92 = tested on: HOP-92
NCI-H226 = tested on: NCI-H226
A498 = tested on: A498
K562 = tested on: K562
OVCAR-8 = tested on: OVCAR-8
SNB-19 = tested on: SNB-19
HOP-18 = tested on: HOP-18
EKVX = tested on: EKVX
SK-MEL-2 = tested on: SK-MEL-2
A549 = tested on: A549
HL-60 = tested on: HL-60
OVCAR-5 = tested on: OVCAR-5
MCF7 = tested on: MCF7
OVCAR-3 = tested on: OVCAR-3
U-251 = tested on: U-251
IGROV-1 = tested on: IGROV-1
SNB-75 = tested on: SNB-75
CAKI-1 = tested on: CAKI-1

**Q.** What does the source list for `CSc1nc(NC2OC(CO)C(O)C(O)C2O)c(N)c(=O)[nH]1` (stereo unspecified)?
**A.** GI50 (LOX IMVI): > 100 µM (inactive); GI50 (SK-MEL-28): > 100 µM (inactive); GI50 (SK-OV-3): > 100 µM (inactive); GI50 (MOLT-4): > 100 µM (inactive); GI50 (NCI-H23): > 100 µM (inactive); GI50 (COLO 205): > 100 µM (inactive); GI50 (HCT-116): > 100 µM (inactive); GI50 (DMS-273): > 100 µM (inactive); GI50 (UACC-257): > 100 µM (inactive); GI50 (M19-MEL): > 100 µM (inactive); GI50 (UO-31): > 100 µM (inactive); GI50 (OVCAR-4): > 100 µM (inactive); GI50 (RPMI-8226): > 100 µM (inactive); GI50 (NCI/ADR-RES): > 100 µM (inactive); GI50 (HOP-62): > 100 µM (inactive); GI50 (HT-29): > 100 µM (inactive); GI50 (SN12C): > 100 µM (inactive); GI50 (KM12): > 100 µM (inactive); GI50 (NCI-H522): > 100 µM (inactive); GI50 (SF-268): > 100 µM (inactive); GI50 (SNB-78): > 100 µM (inactive); GI50 (RXF 393): > 100 µM (inactive); GI50 (NCI-H460): > 100 µM (inactive); GI50 (SK-MEL-5): > 100 µM (inactive); GI50 (XF498): > 100 µM (inactive); GI50 (DMS-114): > 100 µM (inactive); GI50 (UACC-62): > 100 µM (inactive); GI50 (SF-295): > 100 µM (inactive); GI50 (CCRF-CEM): > 100 µM (inactive); GI50 (SF-539): > 100 µM (inactive); GI50 (HCC 2998): > 100 µM (inactive); GI50 (KM-20L2): > 100 µM (inactive); GI50 (HCT-15): > 100 µM; GI50 (Malme-3M): > 100 µM (inactive); GI50 (SW-620): > 100 µM (inactive); GI50 (DLD-1): > 100 µM (inactive); GI50 (HOP-92): > 100 µM (inactive); GI50 (NCI-H226): > 100 µM (inactive); GI50 (A498): > 100 µM (inactive); GI50 (K562): > 100 µM (inactive); GI50 (OVCAR-8): > 100 µM (inactive); GI50 (SNB-19): > 100 µM (inactive); GI50 (HOP-18): > 100 µM (inactive); GI50 (EKVX): > 100 µM (inactive); GI50 (SK-MEL-2): > 100 µM (inactive); GI50 (A549): > 100 µM (inactive); GI50 (HL-60): > 100 µM (inactive); GI50 (OVCAR-5): > 100 µM (inactive); GI50 (MCF7): > 100 µM (inactive); GI50 (OVCAR-3): > 100 µM (inactive); GI50 (U-251): > 100 µM (inactive); GI50 (IGROV-1): > 100 µM (inactive); GI50 (SNB-75): > 100 µM (inactive)

**Q.** How did the GI50 (LOX IMVI) turn out when `CSc1nc(CO)c(CO)n1C` was run?
**A.** The GI50 was > 100 µM (inactive).

**Q.** What about the GI50 (SK-MEL-28) of the same compound?
**A.** Its GI50 is > 100 µM (inactive).

**Q.** And the GI50 (SK-OV-3)?
**A.** Its GI50 is > 100 µM (inactive).

**Q.** And the GI50 (MOLT-4)?
**A.** Its GI50 is > 100 µM (inactive).

**Q.** And the GI50 (NCI-H23)?
**A.** The GI50 was > 100 µM (inactive).

**Q.** What about the GI50 (COLO 205) of the same compound?
**A.** The GI50 was > 100 µM (inactive).

**Q.** What about the GI50 (HCT-116) of the same compound?
**A.** The GI50 was > 100 µM (inactive).

**Q.** And the GI50 (DMS-273)?
**A.** Its GI50 is > 100 µM (inactive).

**Q.** And the GI50 (UACC-257)?
**A.** Its GI50 is > 100 µM (inactive).

**Q.** And the GI50 (M19-MEL)?
**A.** Its GI50 is > 100 µM (inactive).

**Q.** And the GI50 (UO-31)?
**A.** The GI50 was > 100 µM (inactive).

**Q.** And the GI50 (OVCAR-4)?
**A.** The GI50 was > 100 µM (inactive).

**Q.** What about the GI50 (RPMI-8226) of the same compound?
**A.** Its GI50 is > 100 µM (inactive).

**Q.** And the GI50 (NCI/ADR-RES)?
**A.** The GI50 was > 100 µM (inactive).

**Q.** What about the GI50 (HOP-62) of the same compound?
**A.** Its GI50 is > 100 µM (inactive).

**Q.** And the GI50 (HT-29)?
**A.** Its GI50 is > 100 µM (inactive).

**Q.** And the GI50 (SN12C)?
**A.** Its GI50 is > 100 µM (inactive).

**Q.** What about the GI50 (KM12) of the same compound?
**A.** The GI50 was > 100 µM (inactive).

**Q.** And the GI50 (NCI-H522)?
**A.** The GI50 was > 100 µM (inactive).

**Q.** What about the GI50 (SF-268) of the same compound?
**A.** Its GI50 is > 100 µM (inactive).

**Q.** What about the GI50 (SNB-78) of the same compound?
**A.** Its GI50 is > 100 µM (inactive).

**Q.** And the GI50 (RXF 393)?
**A.** Its GI50 is > 100 µM (inactive).

**Q.** And the GI50 (NCI-H460)?
**A.** Its GI50 is > 100 µM (inactive).

**Q.** What about the GI50 (SK-MEL-5) of the same compound?
**A.** Its GI50 is > 100 µM (inactive).

**Q.** And the GI50 (XF498)?
**A.** The GI50 was > 100 µM (inactive).

**Q.** And the GI50 (DMS-114)?
**A.** The GI50 was > 100 µM (inactive).

**Q.** And the GI50 (UACC-62)?
**A.** The GI50 was > 100 µM (inactive).

**Q.** And the GI50 (CAKI-1)?
**A.** The GI50 was > 100 µM (inactive).

**Q.** What about the GI50 (SF-295) of the same compound?
**A.** The GI50 was > 100 µM (inactive).

**Q.** What about the GI50 (CCRF-CEM) of the same compound?
**A.** The GI50 was > 100 µM (inactive).

**Q.** What about the GI50 (SF-539) of the same compound?
**A.** The GI50 was > 100 µM (inactive).

**Q.** What about the GI50 (HCC 2998) of the same compound?
**A.** Its GI50 is > 100 µM (inactive).

**Q.** And the GI50 (KM-20L2)?
**A.** Its GI50 is > 100 µM (inactive).

**Q.** What about the GI50 (HCT-15) of the same compound?
**A.** Its GI50 is greater than 100 µM.

**Q.** What about the GI50 (SW-620) of the same compound?
**A.** The GI50 was > 100 µM (inactive).

**Q.** And the GI50 (DLD-1)?
**A.** The GI50 was > 100 µM (inactive).

**Q.** And the GI50 (HOP-92)?
**A.** The GI50 was > 100 µM (inactive).

**Q.** And the GI50 (NCI-H226)?
**A.** Its GI50 is > 100 µM (inactive).

**Q.** What about the GI50 (A498) of the same compound?
**A.** Its GI50 is > 100 µM (inactive).

**Q.** And the GI50 (K562)?
**A.** The GI50 was > 100 µM (inactive).

**Q.** What about the GI50 (OVCAR-8) of the same compound?
**A.** Its GI50 is > 100 µM (inactive).

**Q.** What about the GI50 (SNB-19) of the same compound?
**A.** Its GI50 is > 100 µM (inactive).

**Q.** And the GI50 (HOP-18)?
**A.** Its GI50 is > 100 µM (inactive).

**Q.** What about the GI50 (EKVX) of the same compound?
**A.** The GI50 was > 100 µM (inactive).

**Q.** What about the GI50 (SK-MEL-2) of the same compound?
**A.** Its GI50 is > 100 µM (inactive).

**Q.** And the GI50 (A549)?
**A.** The GI50 was > 100 µM (inactive).

**Q.** And the GI50 (HL-60)?
**A.** The GI50 was > 100 µM (inactive).

**Q.** And the GI50 (OVCAR-5)?
**A.** The GI50 was > 100 µM (inactive).

**Q.** What about the GI50 (MCF7) of the same compound?
**A.** The GI50 was > 100 µM (inactive).

**Q.** And the GI50 (OVCAR-3)?
**A.** Its GI50 is > 100 µM (inactive).

**Q.** What about the GI50 (U-251) of the same compound?
**A.** The GI50 was > 100 µM (inactive).

**Q.** And the GI50 (IGROV-1)?
**A.** Its GI50 is > 100 µM (inactive).

**Q.** And the GI50 (SNB-75)?
**A.** Its GI50 is > 100 µM (inactive).
